From patent publication US8952008B2, “Chemical compounds” (Pfizer Limited, priority 2012, dated 2015)
pKi: −log10 of the molar value. Values belong to the compound of their own block, whether it stands above or below them.

Tests used:
[1] = biological target: human recombinant GABA A receptor containing the alpha2, beta2, and gamma3 subunits (Homo sapiens, UniProt P47869+Q99928); assay: Radioligand competition binding assay with [3H]Ro-15-1788 (Flumazenil);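 further: membranes from HEK cells expressing the receptor, incubated with radioligand to equilibrium, filter-bound radioactivity counted, Ki reported as geometric mean of replicate runs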
Method: Membranes were prepared from HEK cells expressing hGABA A alpha2beta2-gamma3 receptor, and validated to ascertain protein concentration, receptor expression and to determine the Kd of the flumazenil as well as the Ki of a standard set of compounds before being used to test new compounds.
100 ul of radioligand and 100 ul of membrane in 50 mM Tris-HCl and 0.05% F127 with 1 ul of test compound was incubated for 2 hours to allow the reaction to achieve equilibrium, and then harvested onto filter plates, dried and counted on a TopCount NXT. The data was analysed, and the Ki values were presented as the geometric mean of at least two replicates.

[2] = biological target: GABRA1-GABRB3-GABRG2 chloride currents in HEK cells (Homo sapiens (Human), UniProt P14867+P18507); assay: QPatch electrophysiological recording, % enhancement of GABA current (α1 PAM); type: cell-based; details: approximately EC10 GABA, −60 mV, whole-cell patch clamp
Method: (§1) Cell suspension containing HEK cells expressing GABRA2-GABRB2-GABRG2 was placed on the QPatch instrument in serum-free medium into the instrument's cell stirrer. The instrument washed the cells once using extracellular buffer and then dispensed them into the QPlate HT measurement plate at a concentration of 3-4-e6/ml. […] All recordings were made at room temperature (22-24° C.).
(§2) Current records were acquired at 1 KHz and filtered at 0.3 KHz using the Bessel filter. Series resistance compensation was set to 80% in the QPatch software.
(§3) All compounds were dissolved in dimethyl sulfoxide to make 30 mM or 10 mM stock solutions, which were then diluted to 1000 times the desired final concentration in dimethyl sulfoxide. These were diluted into extracellular solution to attain the final concentrations desired. […] This concentration of dimethyl sulfoxide was present in all samples.
(§4) Currents were recorded at −60 mV, using an approximately EC10 concentration of gamma-aminobutyric acid (GABA). This dose of gamma-aminobutyric acid was applied for 6 seconds and washed off using extracellular buffer as an unrecorded application using the pipetting system of the QPatch instrument. The same dose of gamma-aminobutyric acid was then applied for 9 seconds, then the test compound was co-applied with this dose of gamma-aminobutyric acid for 15 seconds, and washed off using the extracellular solution using the pipetting system of the QPatch instrument.
(§5) Compound effect (% enhancement of gamma-aminobutyric acid current) was calculated using the following formula: [((peak modulator current amplitude-leak)−(GABA current amplitude-leak))/(GABA current amplitude-leak)]*100, where ‘leak’ is leak current at −60 mV, ‘peak modulator current amplitude’ is the current elicited by co-application of gamma-aminobutyric acid and test compound, and ‘GABA current amplitude’ is the current elicited by application of gamma-aminobutyric acid alone.
The ability of the compounds of the formula (I) to modulate the GABA channels expressing the al subunit (or GABRA1) can also be measured using an assay analogous to that described above but replacing the GABRA2-GABRB2-GABRG2 gene construct with the GABRA1-GABRB3-GABRG2 gene construct. All other conditions remain the same including the same cell line and conditions for cell growth.

[3] = biological target: GABRA2-GABRB2-GABRG2 chloride currents in HEK cells (Homo sapiens (Human), UniProt P18507+P47869); assay: QPatch electrophysiological recording, % enhancement of GABA current (α2 PAM); type: cell-based; details: approximately EC10 GABA, −60 mV, whole-cell patch clamp
Method: Human Embryonic Kidney (HEK) cells were transfected with a GABRA2-GABRB2-GABRG2 construct using standard techniques.
For QPatch electrophysiology testing, cells were harvested from flasks by enzymatic dissociation and resuspended in serum-free medium. Cells were typically used for electrophysiological experiments within 24 to 72 hours after splitting.
as §1, §2, §3, §4, §5

GABRA1-GABRB3-GABRG2 chloride currents in HEK cells, sequence (P14867 28-456): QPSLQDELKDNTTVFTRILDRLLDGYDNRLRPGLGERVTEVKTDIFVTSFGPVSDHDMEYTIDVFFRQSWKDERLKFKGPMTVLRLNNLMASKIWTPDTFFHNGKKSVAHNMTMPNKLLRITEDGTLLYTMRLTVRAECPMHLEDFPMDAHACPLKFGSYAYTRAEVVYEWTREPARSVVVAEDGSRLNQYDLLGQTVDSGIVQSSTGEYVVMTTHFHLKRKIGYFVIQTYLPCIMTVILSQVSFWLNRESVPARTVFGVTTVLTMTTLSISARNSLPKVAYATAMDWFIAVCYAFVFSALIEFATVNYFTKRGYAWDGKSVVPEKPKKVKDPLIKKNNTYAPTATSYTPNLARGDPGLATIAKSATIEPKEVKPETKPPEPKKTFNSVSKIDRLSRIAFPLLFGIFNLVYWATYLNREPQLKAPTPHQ
GABRA1-GABRB3-GABRG2 chloride currents in HEK cells, sequence (P28472 26-473 partner): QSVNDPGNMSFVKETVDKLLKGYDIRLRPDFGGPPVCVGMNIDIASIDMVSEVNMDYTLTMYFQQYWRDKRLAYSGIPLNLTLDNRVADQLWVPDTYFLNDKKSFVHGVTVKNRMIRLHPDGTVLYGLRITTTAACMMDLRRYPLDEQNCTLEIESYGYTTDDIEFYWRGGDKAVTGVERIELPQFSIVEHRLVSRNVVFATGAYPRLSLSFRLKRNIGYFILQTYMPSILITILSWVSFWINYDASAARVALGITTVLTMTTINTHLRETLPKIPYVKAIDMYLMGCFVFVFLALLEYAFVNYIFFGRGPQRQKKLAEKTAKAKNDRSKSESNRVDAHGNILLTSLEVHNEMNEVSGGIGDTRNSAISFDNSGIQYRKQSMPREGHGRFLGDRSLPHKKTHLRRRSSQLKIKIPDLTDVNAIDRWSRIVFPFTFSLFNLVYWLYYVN
GABRA1-GABRB3-GABRG2 chloride currents in HEK cells, sequence (P18507 40-475): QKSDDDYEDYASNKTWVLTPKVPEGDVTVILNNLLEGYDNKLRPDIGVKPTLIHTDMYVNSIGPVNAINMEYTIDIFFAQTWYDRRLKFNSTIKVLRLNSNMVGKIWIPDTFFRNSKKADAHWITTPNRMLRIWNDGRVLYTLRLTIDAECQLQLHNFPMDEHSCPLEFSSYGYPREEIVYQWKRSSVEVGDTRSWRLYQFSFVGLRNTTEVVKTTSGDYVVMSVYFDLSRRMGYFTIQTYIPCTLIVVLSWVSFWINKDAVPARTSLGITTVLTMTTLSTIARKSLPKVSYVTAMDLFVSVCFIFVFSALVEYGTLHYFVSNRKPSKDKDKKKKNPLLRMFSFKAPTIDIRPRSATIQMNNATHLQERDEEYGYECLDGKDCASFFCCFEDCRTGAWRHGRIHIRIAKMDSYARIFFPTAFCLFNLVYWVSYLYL
GABRA2-GABRB2-GABRG2 chloride currents in HEK cells, sequence (P47869 29-451): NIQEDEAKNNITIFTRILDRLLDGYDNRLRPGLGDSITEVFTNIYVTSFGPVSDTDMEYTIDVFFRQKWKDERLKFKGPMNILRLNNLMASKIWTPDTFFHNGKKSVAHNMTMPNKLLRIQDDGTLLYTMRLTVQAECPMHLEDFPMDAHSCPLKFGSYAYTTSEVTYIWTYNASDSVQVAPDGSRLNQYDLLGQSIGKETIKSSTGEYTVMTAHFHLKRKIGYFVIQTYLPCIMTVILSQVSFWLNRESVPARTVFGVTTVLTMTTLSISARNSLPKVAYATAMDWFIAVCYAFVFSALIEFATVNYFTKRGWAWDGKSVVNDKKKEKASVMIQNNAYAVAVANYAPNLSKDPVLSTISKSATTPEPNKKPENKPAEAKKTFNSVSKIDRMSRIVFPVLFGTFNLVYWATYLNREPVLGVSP
GABRA2-GABRB2-GABRG2 chloride currents in HEK cells, sequence (P47870 26-512 partner): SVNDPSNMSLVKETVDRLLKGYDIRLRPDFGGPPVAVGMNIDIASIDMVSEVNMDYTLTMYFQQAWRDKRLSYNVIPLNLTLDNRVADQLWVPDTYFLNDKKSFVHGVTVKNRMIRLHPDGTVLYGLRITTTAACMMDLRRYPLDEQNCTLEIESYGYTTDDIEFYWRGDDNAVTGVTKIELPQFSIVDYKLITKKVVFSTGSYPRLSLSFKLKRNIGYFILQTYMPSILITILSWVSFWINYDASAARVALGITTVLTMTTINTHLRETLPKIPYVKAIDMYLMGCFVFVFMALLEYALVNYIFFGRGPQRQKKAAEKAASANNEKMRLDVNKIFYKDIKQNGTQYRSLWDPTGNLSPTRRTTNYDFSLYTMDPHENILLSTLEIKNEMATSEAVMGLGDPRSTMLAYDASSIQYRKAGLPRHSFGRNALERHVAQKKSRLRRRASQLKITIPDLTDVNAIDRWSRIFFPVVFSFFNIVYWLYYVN
GABRA2-GABRB2-GABRG2 chloride currents in HEK cells, sequence (P18507 40-475): as the sequence (P18507 40-475) above

pKi [1]: 8.07
α1 PAM (%) [2]: 14.6%
α2 PAM (%) [3]: 62.5%
Structure (SMILES): COc1cc(S(C)(=O)=O)ccc1-c1cc(-c2cnnc3c2ncn3C(C)C)ccc1F [Example 38, 4-(6-Fluoro-2′-methoxy-4′-(methylsulfonyl)-[1,1′-biphenyl]-3-yl)-7-isopropyl-7H-imidazo[4,5-c]pyridazine]

pKi [1]: 7.00
α1 PAM (%) [2]: 69.4%
α2 PAM (%) [3]: 173%
Structure (SMILES): COc1cc(S(C)(=O)=O)ccc1-c1cc(-c2cnnc3c2ncn3C2CCC2)ccc1F [Example 29, 7-Cyclobutyl-4-(6-fluoro-2′-methoxy-4′-(methylsulfonyl)-[1,1′-biphenyl]-3-yl)-7H-imidazol[4,5-c]pyridazine]

pKi [1]: 7.04
α1 PAM (%) [2]: 112%
α2 PAM (%) [3]: 199%
Structure (SMILES): COc1cc(S(C)(=O)=O)ccc1-c1cc(-c2cnnc3c2ncn3C2CCCC2)ccc1F [Example 42, 7-Cyclopentyl-4-(6-fluoro-2′-methoxy-4′-(methylsulfonyl)-[1,1′-biphenyl]-3-yl)-7H-imidazo[4,5-c]pyridazine]

pKi [1]: 7.79
α1 PAM (%) [2]: −27.0%
α2 PAM (%) [3]: 79.9%
Structure (SMILES): CNS(=O)(=O)c1ccc(-c2cc(-c3cnnc4c3ncn4C(C)C)ccc2F)cc1 [Example 33, 2′-Fluoro-N-methyl-5′-[7-(propan-2-yl)-7H-imidazo[4,5-c]pyridazin-4-yl]biphenyl-4-sulfonamide]

pKi [1]: 7.54
α1 PAM (%) [2]: 14.9%
α2 PAM (%) [3]: 81.3%
Structure (SMILES): CCS(=O)(=O)c1ccc(-c2cc(-c3cnnc4c3ncn4C(C)C)ccc2F)c(C#N)c1 [Example 41, 4-(Ethylsulfonyl)-2′-fluoro-5′-(7-isopropyl-7H-imidazo[4,5-c]pyridazin-4-yl)-[1,1′-biphenyl]-2-carbonitrile]

pKi [1]: 7.62
α1 PAM (%) [2]: 21.3%
α2 PAM (%) [3]: 118%
Structure (SMILES): CCS(=O)(=O)c1ccc(-c2cc(-c3cnnc4c3ncn4C(C)C)ccc2F)cc1 [Example 31, 4-[4′-(Ethylsulfonyl)-6-fluorobiphenyl-3-yl]-7-(propan-2-yl)-7H-imidazo[4,5-c]pyridazine]

pKi [1]: 8.24
α1 PAM (%) [2]: −29.5%
α2 PAM (%) [3]: 77.2%
Structure (SMILES): CC(C)n1cnc2c(-c3ccc(F)c(-c4ccc(S(N)(=O)=O)cc4)c3)cnnc21 [Example 32, 2′-Fluoro-5′-(7-isopropyl-7H-imidazo[4,5-c]pyridazin-4-yl)biphenyl-4-sulfonamide]

pKi [1]: 6.77
α1 PAM (%) [2]: −5.82%
α2 PAM (%) [3]: 23.9%
Structure (SMILES): CCS(=O)(=O)c1ccc(-c2cc(-c3cnnc4c3ncn4C3CC3)ccc2F)c(C#N)c1 [Example 25, 5′-(7-Cyclopropyl-7H-imidazo[4,5-c]pyridazin-4-yl)-4-(ethylsulfonyl)-2′-fluoro-[1,1′-biphenyl]-2-carbonitrile]

pKi [1]: 7.46
α1 PAM (%) [2]: 4.99%
α2 PAM (%) [3]: 94.7%
Structure (SMILES): CCS(=O)(=O)c1ccc(-c2cc(-c3cnnc4c3ncn4C(C)C)ccc2F)c(F)c1 [Example 34, 4-[4′-(Ethylsulfonyl)-2′,6-difluorobiphenyl-3-yl]-7-(propan-2-yl)-7H-imidazol[4,5-c]pyridazine]

Continued, compound first:

Structure (SMILES): COc1cc(S(C)(=O)=O)ccc1-c1cc(-c2cnnc3c2ncn3C2CC2)ccc1F [Example 24, 7-Cyclopropyl-4-(6-fluoro-2′-methoxy-4′-(methylsulfonyl)-[1,1′-biphenyl]-3-yl)-7H-imidazo[4,5-c]pyridazine]
pKi [1]: 7.43
α1 PAM (%) [2]: −0.441%
α2 PAM (%) [3]: 55.3%

Structure (SMILES): CCn1cnc2c(-c3ccc(F)c(-c4ccc(S(C)(=O)=O)cc4F)c3)cnnc21 [Example 2, 4-[2′,6-Difluoro-4′-(methylsulfonyl)biphenyl-3-yl]-7-ethyl-7H-imidazo[4,5-c]pyridazine]
pKi [1]: 7.96
α1 PAM (%) [2]: −4.67%
α2 PAM (%) [3]: 1.69%

Structure (SMILES): CCS(=O)(=O)c1ccc(-c2cc(-c3cnnc4c3ncn4C3CC3)ccc2F)cc1 [Example 19, 7-Cyclopropyl-4-[4′-(ethylsulfonyl)-6-fluorobiphenyl-3-yl]-7H-imidazo[4,5-c]pyridazine]
pKi [1]: 7.51
α1 PAM (%) [2]: −6.17%
α2 PAM (%) [3]: 84.3%

Structure (SMILES): CCn1cnc2c(-c3ccc(F)c(-c4ccc(S(=O)(=O)C(C)C)cc4)c3)cnnc21 [Example 1, 7-Ethyl-4-[6-fluoro-4′-(propan-2-ylsulfonyl)biphenyl-3-yl]-7H-imidazo[4,5-c]pyridazine]
pKi [1]: 7.51
α1 PAM (%) [2]: 1.05%
α2 PAM (%) [3]: 124%

Structure (SMILES): CCn1cnc2c(-c3ccc(F)c(-c4ccc(S(=O)(=O)CC)cc4C#N)c3)cnnc21 [Example 11, 5′-(7-Ethyl-7H-imidazo[4,5-c]pyridazin-4-yl)-4-(ethylsulfonyl)-2′-fluoro-[1,1′-biphenyl]-2-carbonitrile]
pKi [1]: 7.41
α1 PAM (%) [2]: −0.474%
α2 PAM (%) [3]: 46.7%

Structure (SMILES): CCn1cnc2c(-c3ccc(F)c(-c4ccc(S(N)(=O)=O)cc4)c3)cnnc21 [Example 3, 5′-(7-Ethyl-7H-imidazo[4,5-c]pyridazin-4-yl)-2′-fluorobiphenyl-4-sulfonamide]
α1 PAM (%) [2]: −51.1%
α2 PAM (%) [3]: 27.6%

Structure (SMILES): CS(=O)(=O)c1ccc(-c2cc(-c3cnnc4c3ncn4C3CC3)ccc2F)cc1 [Example 21, 7-Cyclopropyl-4-(6-fluoro-4′-(methylsulfonyl)biphenyl-3-yl)-7H-imidazo[4,5-c]pyridazine]
pKi [1]: 7.36
α1 PAM (%) [2]: −5.78%
α2 PAM (%) [3]: 31.6%
